Consider eleven molecules from ChEMBL document CHEMBL1130695, “Biologically selective potassium channel openers having 1,1-diethylpropyl group” (1998).

Each structure is given as a SMILES string. pEC50: −log10 of the molar value.

The species entered for experiment [1] is Cavia porcellus. As to the kind of experiment: Compound was tested for relaxant activity in trachea for asthma in male guinea pigs. It is filed as functional.
For experiment [2], the species on record is Cavia porcellus. As to the kind of experiment: Compound was tested for relaxant activity in urinary bladder for urinary incontinence in male guinea pigs. It is filed as functional.
For a further experiment, the system named is Canis familiaris. In words: Compound was tested for the antihypertensive activity in dogs by intravenous injection at a dose of 30 ug/kg. Format: functional, Canis lupus familiaris.
The species named for experiment [3] is Cavia porcellus. In words: Compound was tested for relaxant activity in taenia caecum. It is filed as functional. Particulars: read-out: ED50 (the source's name).
The species entered for experiment [4] is Cavia porcellus. As to the kind of experiment: Compound was tested for relaxant activity in urinary bladder for urinary incontinence in male guinea pigs at 1 uM concentration. Set-up: scale not given: the % may be the effect or the level left. It is filed as functional.

On to `CCC(C)(CC)/N=C(\NC#N)Nc1cc(Cl)cc(Cl)c1`, for which the ED50 in the experiment listed under Cavia porcellus [1] was 440 nM; in the experiment listed under Cavia porcellus [2] it was 13 nM.

Turning to `CCC(C)(CC)/N=C(\NC#N)Nc1cc(Cl)cc(C#N)c1`, in the experiment on Canis familiaris, the AHA is on record as -25.2 delta mmHg. For the same molecule, the results for the ED50 in the experiment listed under Cavia porcellus [1] and in the experiment filed under Cavia porcellus [2] were 190 nM and 16 nM, respectively. In addition, the pEC50 in the experiment filed under Cavia porcellus [3] is 7.00.

For the molecule `CCC(C)(C)/N=C(\NC#N)Nc1cc(F)cc(Br)c1`, the ED50 in the experiment filed under Cavia porcellus [1] amounted to 180 nM; in the experiment listed under Cavia porcellus [2], 16 nM.

For `CCC(CC)(CC)/N=C(\NC#N)Nc1cc(Cl)cc(C#N)c1`, the AHA in the experiment with Canis familiaris is recorded as -18.9 delta mmHg. In addition, the ED50 in the experiment listed under Cavia porcellus [1] was 5600 nM; in the experiment filed under Cavia porcellus [2] it was more than 1000 nM. The molecule further returned an Activity in the experiment listed under Cavia porcellus [4] of 22%. Besides, the pEC50 in the experiment listed under Cavia porcellus [3] was 7.03.

Consider `CCC(C)(C)/N=C(\NC#N)Nc1cc(Br)cc(C#N)c1`, for which the ED50 in the experiment listed under Cavia porcellus [1] came out at 80 nM; in the experiment filed under Cavia porcellus [2], 11 nM. Further, in the experiment listed under Cavia porcellus [3], the pEC50 was 7.49.

With `CC(C)C(C)(C)/N=C(\NC#N)Nc1cc(Cl)cc(C#N)c1`, the AHA with Canis familiaris is recorded as -20.3 delta mmHg. In addition, the ED50 in the experiment filed under Cavia porcellus [1] stood at 690 nM; in the experiment filed under Cavia porcellus [2], 190 nM. Also, in the experiment filed under Cavia porcellus [3], the pEC50 is 6.77.

`CCC(C)(C)/N=C(\NC#N)Nc1cc(Cl)cc(C#N)c1`: the AHA in the experiment on Canis familiaris was -29.8 delta mmHg. Besides, the ED50 came out at 280 nM in the experiment listed under Cavia porcellus [1] and 20 nM in the experiment listed under Cavia porcellus [2]. Also, the pEC50 in the experiment filed under Cavia porcellus [3] was 7.12.

With `CCC(C)(C)/N=C(\NC#N)Nc1cc(F)cc(Cl)c1`, the values for the ED50 in the experiment filed under Cavia porcellus [1] and in the experiment filed under Cavia porcellus [2] were 260 nM and 32 nM, respectively.

`CCC(CC)(CC)/N=C(\NC#N)Nc1cc(Cl)cc(Cl)c1` came in with an AHA in the experiment with Canis familiaris of -15.9 delta mmHg. Besides, the ED50 in the experiment listed under Cavia porcellus [1] was 30000 nM; in the experiment filed under Cavia porcellus [2], more than 1000 nM. Further, the Activity in the experiment filed under Cavia porcellus [4] is listed as less than 5%.

In the experiment on Canis familiaris, `CC1(C)Oc2ccc(C#N)cc2[C@@H](N2CCCC2=O)[C@@H]1O` [CROMAKALIM] registered an AHA of -37.8 delta mmHg. The ED50 in the experiment listed under Cavia porcellus [1] was determined as 1200 nM; in the experiment filed under Cavia porcellus [2], 42 nM. Further, the pEC50 in the experiment listed under Cavia porcellus [3] was 6.33.

Regarding `CC(N/C(=N\C#N)Nc1ccncc1)C(C)(C)C` (stereo unspecified) [PINACIDIL ANHYDROUS], the ED50 in the experiment listed under Cavia porcellus [1] amounted to 2300 nM; in the experiment listed under Cavia porcellus [2], 310 nM.
